Assay results taken from US6699681B2, “Endothelin converting enzymes and the amyloid β peptide” (Mayo Foundation for Medical Education and Research, priority 2000, dated 2004).

Legend:
[1] = test system: H4 neuroglioma cells; assay: Extracellular Aβ after treatment of H4 cells with metalloprotease inhibitors; assay type: cell-based, human; conditions: H4 neuroglioma cells; thiorphan or captopril at concentrations greater than 1000-times the reported IC50 for the target enzymes
Method: Human and guinea pig Aβ40 or Aβ42 was measured in plasma by sandwich ELISA as previously described (Suzuki et al., 1994, Science, 264:1336-1340) using the BAN-50/BA-27 or BAN-50/BC-05 antibody systems, respectively (Takeda; Japan). Hamster Aβ40- or Aβ42-derived from CHO cells was measured using the BNT-77/BA-27 or BNT-77/BC-05 antibody systems, respectively. Aβ concentration in samples was determined by comparison to synthetic Aβ40 or Aβ42 standards (Bachem, Switzerland). Data was obtained from triplicate wells.
In particular, the sandwich ELISA used herein was performed as follows: 96-well microtiter plates were coated overnight at 4° C. with 100 μl of a 5 μg/ml dilution of primary antibody in sodium carbonate coating buffer (SCCB; 0.1 M Na2CO3, pH 9.6). Plates were blocked overnight at 4° C. with 300 μl of BLOCKAGE Solution (PBS+1.0% BLOCKAGE (Snow Brand Milk Products, Japan), 0.05% NaN3, pH 7.4). Samples for analysis and synthetic Aβ standards (Bachem, Switzerland) were diluted in buffer EC (0.02 M NaH2PO4, 0.002 M EDTA, 0.4 M NaCl, 0.2% BSA, 0.05% CHAPS, 0.04% BLOCKAGE, 0.05% NaN3, pH 7.0) and allowed to incubate on the plates overnight at 4° C. Plates were washed twice with PBS (8 mM Na2HPO4, 1.5 mM KH2PO4, 139 mM NaCl, 2.7 mM KCl, pH 7.4) and 100 μl of secondary antibody directly coupled to HRP (EZ-LINK™ Plus Activated Peroxidase kit (contents of kit: peroxidase, 5 M sodium cyanoborohydride solution (NaBH3CN), quenching buffer (3 M ethanolamine, pH 9.0), BupH™ phosphate buffered saline, Buph™ carbonate-bicarbonate buffer), according to manufacturers directions; Pierce Chemical Co., Rockford, Ill.) was allowed to bind either 4 hrs at room temperature or overnight at 4° C. Plates were then washed twice with PBS containing 0.05% Tween 20 followed by two additional washes in PBS. Detection was performed using TMB (3,3′,5,5′-tetramethyl-benzidine) as an HRP substrate according to the manufacturer's specifications (Kirkegaard & Perry Laboratories (KPL), Gaithersburg, Md.) and the reaction stopped by the addition of 100 μl of 1N H3PO4. Plates were read at 450 nm in a SpectraMax Plus spectrophotometer (Molecular Devices; Sunnyvale, Calif.) and analyzed by SOFTmax® PRO software. Aβ40 or Aβ42 were quantitated by comparison with the values obtained for each synthetic Aβ standard from the same plate.
Cells were passaged into 6-well plates one day prior to treatment and grown to confluence. […] After treatment, the culture medium was harvested, spun at 14,000 xg, and the supernatant analyzed for Aβ40 or Aβ42 using sandwich ELISA and for secreted APP using Western blot. […] Bound antibody was detected by incubation with the appropriate HRP-linked secondary antibody (Amersham, Uppsala, Sweden) using ECL™ Western blotting reagents (Amersham) followed by exposure to X-ray film. […]

[2] = test system: Aβ in the brain; conditions: infusion into the brain of rats; deposition of Aβ42; previous report; cited from earlier work
[3] = test system: synthetic Aβ40 or Aβ42; assay: Aβ degradation by SolECE-1, sandwich ELISA; assay type: biochemical; conditions: SolECE-1 approximately 0.2 μM; Aβ 0.01 μM; 24 hrs at 37° C., pH 6.5
Method: (§1) SolECE-1 (approximately 0.2 μM) was pre-incubated for 15 min at room temperature with the ECE inhibitors PD069185 (synthesized according to published methods (Ahn et al., 1998, Biochem. Biophys. Res. Comm., 243:184-190) by the Mayo Clinic Organic Chemistry Core Facility, Jacksonville, Fla.) or phosphoramidon (150 μM), or an equal volume of vehicle (DMSO or PBS, respectively) prior to incubation with synthetic Aβ40 or Aβ42 (0.01 μM) in 50 mM MES (pH 6.5) containing 0.01% C12E10, 1 mM PMSF, 100 μM leupeptin, and 20 μM pepstatin. As a control, Aβ was incubated with Ni-NTA purified proteins from non-transfected CHO cells, or in reaction buffer alone. Following incubation for 24 hrs at 37° C., the reactions were stopped by the addition of 5 mM EDTA. Aβ concentration was then analyzed using a highly specific sandwich ELISA that captures Aβ via binding of antibody BAN-50 to the N-terminus, and detects only full-length Aβ peptides ending at residue 40 (using antibody BA-27) or 42 (using antibody BC-05). Thus, Aβ that has been further hydrolyzed will not be detected using this assay. To further analyze the degradation of Aβ by SolECE1, the enzyme was incubated with ^3H labeled Aβ40 (0.56 μM, 2×10^4 dpm) as described above and resulting peptides were separated by reverse-phase chromatography.

[4] = test system: 3H-Aβ40; assay: Degradation of 3H labeled Aβ40 by SolECE-1, reverse-phase chromatography; assay type: biochemical; conditions: 3H-Aβ40 0.56 μM
Method: as §1

Molecule	extracellular Aβ accumulation [1]	amount of Aβ in the brain [2]	loss of synthetic Aβ40 and Aβ42 detected by sandwich ELISA [3]	effect on 3H-Aβ40 by reverse-phase chromatography [4]
C[C@H](CS)C(=O)N1CCC[C@H]1C(=O)O [captopril]	failed to result in increased extracellular Aβ			
O=C(O)CNC(=O)C(CS)Cc1ccccc1 (centres unmarked) [thiorphan]	failed to result in increased extracellular Aβ	significant increase		
SolECE-1: recombinant soluble form of ECE-1: extracellular domain of human ECE-1a with c-myc and 6×His tags, secreted by CHO cells (protein, UniProt P42892 90-770, looked up, extracellular domain c-myc and 6xHis tags, recombinant soluble form of ECE-1: extracellular domain of human ECE-1a with c-myc and 6×His tags, secreted by CHO cells) extracellular domain: QYQTRSPSVCLSEACVSVTSSILSSMDPTVDPCHDFFSYACGGWIKANPVPDGHSRWGTFSNLWEHNQAIIKHLLENSTASVSEAERKAQVYYRACMNETRIEELRAKPLMELIERLGGWNITGPWAKDNFQDTLQVVTAHYRTSPFFSVYVSADSKNSNSNVIQVDQSGLGLPSRDYYLNKTENEKVLTGYLNYMVQLGKLLGGGDEEAIRPQMQQILDFETALANITIPQEKRRDEELIYHKVTAAELQTLAPAINWLPFLNTIFYPVEINESEPIVVYDKEYLEQISTLINTTDRCLLNNYMIWNLVRKTSSFLDQRFQDADEKFMEVMYGTKKTCLPRWKFCVSDTENNLGFALGPMFVKATFAEDSKSIATEIILEIKKAFEESLSTLKWMDEETRKSAKEKADAIYNMIGYPNFIMDPKELDKVFNDYTAVPDLYFENAMRFFNFSWRVTADQLRKAPNRDQWSMTPPMVNAYYSPTKNEIVFPAGILQAPFYTRSSPKALNFGGIGVVVGHELTHAFDDQGREYDKDGNLRPWWKNSSVEAFKRQTECMVEQYSNYSVNGEPVNGRHTLGENIADNGGLKAAYRAYQNWVKKNGAEHSLPTLGLTNNQLFFLGFAQVWCSVRTPESSHEGLITDPHSPSRFRVIGSLSNSKEFSEHFRCPPGSPMNPPHKCEVW			almost complete loss	loss of the full-length (i.e., unhydrolyzed) Aβ and the formation of at least 4 novel peaks
